# Data published in paper PMC12291119, “In Vitro Selection of Cyclized, Glycosylated Peptide Antigens That Tightly Bind HIV High Mannose Patch Antibodies” (ACS Central Science, 2025).
# Numbered stars: 1 amine (or outer) side, 2 acyl side, 3 side chain; on linkers, the order of the positions; unused ones are H or OH. Bridge positions count the residues as written; N and C are the ends. Square brackets hold non-standard residues; d marks the D form. Ends that are not written are not given here. * marks the point of attachment. X1 = CC(=O)N[C@@H]1[C@@H](O)[C@H](O[C@@H]2O[C@H](CO)[C@@H](O[C@@H]3O[C@H](CO[C@H]4O[C@H](CO[C@H]5O[C@H](CO)[C@@H](O)[C@H](O)[C@@H]5O[C@H]5O[C@H](CO)[C@@H](O)[C@H](O)[C@@H]5O)[C@@H](O)[C@H](O[C@H]5O[C@H](CO)[C@@H](O)[C@H](O)[C@@H]5O[C@H]5O[C@H](CO)[C@@H](O)[C@H](O)[C@@H]5O)[C@@H]4O)[C@@H](O)[C@H](O[C@H]4O[C@H](CO)[C@@H](O)[C@H](O)[C@@H]4O[C@H]4O[C@H](CO)[C@@H](O)[C@H](O)[C@@H]4O[C@H]4O[C@H](CO)[C@@H](O)[C@H](O)[C@@H]4O)[C@@H]3O)[C@H](O)[C@H]2NC(C)=O)[C@@H](CO)O[C@H]1n1cc(CC[C@H](N[*:1])C(=O)[*:2])nn1; Biotin = O=C1N[C@H]2[C@H](CS[C@H]2CCCCC(=O)*)N1; mXylylene = c1cc(C[*:1])cc(C[*:2])c1
# What was measured:
# [1] = target: PGT128; assay: Biolayer interferometry (BLI) of immobilized biotinylated glycopeptides binding to PGT128; conditions: for fold decrease in PGT128 binding relative to parent H1 glycopeptide: BLI KD compared with H1 (peptide 1)
# Excerpt: 6 Biolayer interferometry (BLI) measurement of glycopeptides immobilized via biotin on a streptavidin biosensor binding to PGT128. All sensorgrams represent a series of 2-fold dilutions of antibody with highest concentration tested labeled. All sequences followed by GSGSGK(Biotin). M denotes homopropargylglycine, modified by CuAAC as in Figure .
# C. Binding Analysis of PGT Antibody-Peptide/Glycopeptide Interactions by Biolayer Interferometry
# 1. Biolayer Interferometry Protocol
# Biotinylated glycopeptide was loaded onto a streptavidin biosensor in 250 µL buffer 1 (500 to 1000 nM […] glycopeptide in 20 mM Tris pH 7.5, 150 mM NaCl, 0.2 mg/ml BSA, 0.02% (v/v) Tween-20) for 120s in a […] of black Eppendorf tube. The sensor was then washed with 250 µL of blank buffer 1 for 120 seconds in a […] black Eppendorf tube. The sensor was washed with 250 µL buffer 3 (10 mM glycine HCl, pH 2.5) for 120 seconds in […] of black Eppendorf tube and followed by 250 µL of blank buffer 1 for 120 seconds in a […] black Eppendorf tube to immobilize glycopeptides in a range of 0.5 nm to 2 nm response. The sensor was then equilibrated with 250 µL of buffer 2 (20 mM Tris pH 7.5, 150 mM NaCl, 2 mg/ml BSA, 0.1% (v/v) Tween-20) for 120 seconds in a […] of black Eppendorf tube PGT antibody (prepared in buffer 2) was associated at several concentrations for 300 seconds in 4 µL drop holder followed by dissociation into blank 250 µL of buffer 2 for 300 seconds in […] of black Eppendorf tube. After each dissociation sensor was regenerated to remove the remaining antibody by treatment with 250 µL of buffer 3 for 120 seconds, followed by 120 seconds of wash with 250 µL buffer 1 and re-equilibration with 250 µL buffer 2 in […] of black Eppendorf tube. Throughout the experiment, the shaker rate was set at 2200 rpm. Data were fit globally to a 1:1 binding model.
# 2. BLI Sensorgram of H1-QQQ-non-glycosylated Peptide with PGT128
# Figure S33. […]
# [2] = system: HIV pseudovirus panel; conditions: ref number not given, cited from earlier work
# Excerpt: We have sought to mimic HMP epitopes without using either the entire Env protein, which contains a plethora of “distracting” epitopes that easily elicit off-target antibodies; − or short glycopeptides directly derived from the Env sequence, which may not sufficiently recapitulate the HMP structure without the conformational support of the remaining Env protein. Aiming to design glycostructures that better mimic the glycan presentation in the HMP, we have pioneered various techniques for the directed evolution of DNA, , RNA, F-RNA, or peptide-supported , glycan clusters.
# [3] = target: HIV Env; conditions: read-out: reported affinities of PGT122 for HIV Env; ref number not given; cited from earlier work
# Excerpt: We performed preliminary binding assays for those sequences and others using translated peptides with or without attached glycans. No sequ ...
# [4] = diverse/representative HIV pseudovirus panel
substance,measurement,setting,value
ALFKPYPKIGDIRKARC[X1]LQHTLHHRTNKQPSYRRRLKTLIPLFRRC[X1]LGSGSGK(Biotin)-NH2 (linker 17-47 via mXylylene; C-terminus assumed) [compound 2],Kd,"[1]; BLI, peptide immobilized via biotin on streptavidin biosensor, 2-fold dilutions of PGT128 in 20 mM Tris pH 7.5, 150 mM NaCl, 2 mg/ml BSA, 0.1% Tween-20, 300 s association, 300 s dissociation, global 1:1 fit",16.9 nM
AYTEKHNGIGDIRPAICQNSKNQNHRCNHYQIKLYIH[X1]L[X1]RLPHNYRNSGSGSGK(Biotin)-NH2 (linker 17-27 via mXylylene; C-terminus assumed) [peptide 3],fold decrease in PGT128 binding relative to parent H1 glycopeptide,[1],~2 fold
AYTEKHNGIGDIRPAIC[X1]NSKNQNHRCNHYQIKLYIHQLQRLPHNYRNSGSGSGK(Biotin)-NH2 (linker 17-27 via mXylylene; C-terminus assumed) [peptide 4],fold decrease in PGT128 binding relative to parent H1 glycopeptide,[1],~40 fold
PGT122: HIV bnAb binding the High Mannose Patch,breadth (fraction of HIV pseudovirus panel neutralized),[2]; [4],65%
same,median IC50,[2]; [4],0.05 µg/mL
same,potency (EC50),[2]; neutralization potency,0.05 µg/mL
same,Kd,[3],100 to 174 nM
